PMC8286840, “Identifying SARS-CoV-2 antiviral compounds by screening for small molecule inhibitors of Nsp3 papain-like protease” (Biochemical Journal, 2021)
Where a name gives a salt, the structure may show the parent alone. Read-outs that look alike come from different tables or passages of the source.

Tests used:
[1] = target: T1, SARS-CoV-2 PLpro (nsp3 1564–1878) (Severe acute respiratory syndrome coronavirus 2, UniProt P0DTD1); test: biochemical; parameters: FRET-quenched peptide (Pro3) cleavage by PLpro, 10 min pre-incubation, slope over 20 min, normalised to no-compound control; settings: low concentration screen, read-out: % of control remaining
[2] = target: T1, SARS-CoV-2 PLpro (nsp3 1564–1878); test: biochemical; parameters: FRET-quenched peptide (Pro3) cleavage by PLpro, 10 min pre-incubation, slope over 20 min, normalised to no-compound control; settings: high concentration screen, read-out: % of control remaining

In the case of C[C@@H]1O[C@@H](OC[C@H]2O[C@@H](Oc3cc(O)c4c(c3)O[C@H](c3ccc(O)c(O)c3)CC4=O)[C@H](O)[C@@H](O)[C@@H]2O)[C@H](O)[C@H](O)[C@H]1O [Eriocitrin], the remaining activity at 1.25 µM ([1]; Well no.=3257) is reported as 98.6% and the remaining activity at 3.75 µM ([2]; Well no.=3257) is reported as 97.1%.
O=C1C[C@@H](c2ccc(O)c(O)c2)Oc2cc(O[C@@H]3O[C@H](CO)[C@@H](O)[C@H](O)[C@H]3O)cc(O)c21 [Eriodictyol-7-O-glucoside] was tested, and the remaining activity at 1.25 µM ([1]; Well no.=3261) was 96.6% and the remaining activity at 3.75 µM ([2]; Well no.=3261) was 95.5%.
Work on O=C1C[C@@H](c2ccc(O)c(O)c2)Oc2cc(O)cc(O)c21 [Eriodictyol] yielded a remaining activity at 1.25 µM ([1]; Well no.=3259) of 104% and a remaining activity at 3.75 µM ([2]; Well no.=3259) of 103%.
With CCOC(=O)CCC(=O)O[C@H]1[C@H](O[C@@H]2[C@@H](C)[C@H](O[C@H]3C[C@@](C)(OC)[C@@H](O)[C@H](C)O3)[C@@H](C)C(=O)O[C@H](CC)[C@@](C)(O)[C@H](O)[C@@H](C)C(=O)[C@H](C)C[C@@]2(C)O)O[C@H](C)C[C@@H]1N(C)C [Erythromycin Ethylsuccinate] the remaining activity at 1.25 µM ([1]; Well no.=5126) was 100% and the remaining activity at 3.75 µM ([2]; Well no.=5126) was 102%.
CN(C)CCC[C@@]1(c2ccc(F)cc2)OCc2cc(C#N)ccc21 [Escitalopram Oxalate] showed a remaining activity at 1.25 µM ([1]; Well no.=5128) of 109% and a remaining activity at 3.75 µM ([2]; Well no.=5128) of 107%.
Work on CN(C)CCC[C@@]1(c2ccc(F)cc2)OCc2cc(C#N)ccc21 [Escitalopram] yielded a remaining activity at 1.25 µM ([1]; Well no.=1880) of 95.4% and a remaining activity at 3.75 µM ([2]; Well no.=1880) of 94.3%.
O=c1ccc2cc(O)c(O)cc2o1 [Esculetin] was tested, and the remaining activity at 1.25 µM ([1]; Well no.=3988) was 101% and the remaining activity at 3.75 µM ([2]; Well no.=3988) was 98.6%.
COC(=O)CCc1ccc(OCC(O)CNC(C)C)cc1 (centres unmarked) [Esmolol (hydrochloride)] was tested, and the remaining activity at 1.25 µM ([1]; Well no.=6651) was 105% and the remaining activity at 3.75 µM ([2]; Well no.=6651) was 107%.
For COC(=O)CCc1ccc(OCC(O)CNC(C)C)cc1 (centres unmarked) [Esmolol], the remaining activity at 1.25 µM ([1]; Well no.=2286) was 96.3% and the remaining activity at 3.75 µM ([2]; Well no.=2286) was 96.8%.
With COc1ccc2[nH]c([S@@+]([O-])Cc3ncc(C)c(OC)c3C)nc2c1 [Esomeprazole] the remaining activity at 1.25 µM ([1]; Well no.=2032) was 108% and the remaining activity at 3.75 µM ([2]; Well no.=2032) was 106%.
C[C@]12CC[C@@H]3c4ccc(OC(=O)c5ccccc5)cc4CC[C@H]3[C@@H]1CC[C@@H]2O [Estradiol Benzoate] showed a remaining activity at 1.25 µM ([1]; Well no.=5134) of 105% and a remaining activity at 3.75 µM ([2]; Well no.=5134) of 104%.
CCCCC(=O)O[C@H]1CC[C@H]2[C@@H]3CCc4cc(O)ccc4[C@H]3CC[C@]12C [Estradiol valerate] showed a remaining activity at 1.25 µM ([1]; Well no.=5365) of 95.5% and a remaining activity at 3.75 µM ([2]; Well no.=5365) of 99.5%.
With C[C@]12CC[C@@H]3c4ccc(O)cc4CC[C@H]3[C@@H]1CC[C@@H]2O [Estradiol] the remaining activity at 1.25 µM ([1]; Well no.=2034) was 99.3%, the remaining activity at 1.25 µM ([1]; Well no.=6449) was 98.6% and the remaining activity at 3.75 µM ([2]; Well no.=2034) was 96.6%. For the same compound, the remaining activity at 3.75 µM ([2]; Well no.=6449) was 101%.
Compound C[C@]12CC[C@@H]3c4ccc(O)cc4CC[C@H]3[C@@H]1C[C@@H](O)[C@@H]2O [Estriol] has a remaining activity at 1.25 µM ([1]; Well no.=2036) of 105%, a remaining activity at 1.25 µM ([1]; Well no.=6489) of 104% and a remaining activity at 3.75 µM ([2]; Well no.=2036) of 104%. For the same compound, the remaining activity at 3.75 µM ([2]; Well no.=6489) was 108%.
For C[C@]12CC[C@@H]3c4ccc(O)cc4CC[C@H]3[C@@H]1CCC2=O [Estrone], the remaining activity at 1.25 µM ([1]; Well no.=559) was 101%, the remaining activity at 1.25 µM ([1]; Well no.=2038) was 103% and the remaining activity at 1.25 µM ([1]; Well no.=6445) was 102%. The remaining activity at 3.75 µM ([2]; Well no.=559) was 98.9%, the remaining activity at 3.75 µM ([2]; Well no.=2038) was 104% and the remaining activity at 3.75 µM ([2]; Well no.=6445) was 96%.
For CCOC(=O)c1cnc2c(cnn2CC)c1NN=C(C)C [Etazolate hydrochloride], the remaining activity at 1.25 µM ([1]; Well no.=550) was 101% and the remaining activity at 3.75 µM ([2]; Well no.=550) was 103%.
With CCOC(=O)c1cnc2c(cnn2CC)c1NN=C(C)C [Etazolate] the remaining activity at 1.25 µM ([1]; Well no.=2144) was 93.8% and the remaining activity at 3.75 µM ([2]; Well no.=2144) was 97.1%.
C=C(CC)C(=O)c1ccc(OCC(=O)O)c(Cl)c1Cl [Ethacrynic Acid] was tested, and the remaining activity at 1.25 µM ([1]; Well no.=1865) was 95.6% and the remaining activity at 3.75 µM ([2]; Well no.=1865) was 94.6%.
Compound CC[C@@H](CO)NCCN[C@@H](CC)CO [Ethambutol HCl] has a remaining activity at 1.25 µM ([1]; Well no.=5072) of 99.5% and a remaining activity at 3.75 µM ([2]; Well no.=5072) of 100%.
O=S(=O)(O)c1cc(O)ccc1O [Ethamsylate] gave a remaining activity at 1.25 µM ([1]; Well no.=6763) of 103% and a remaining activity at 3.75 µM ([2]; Well no.=6763) of 89.6%.
Compound C#C[C@]1(O)CC[C@H]2[C@@H]3CCc4cc(O)ccc4[C@H]3CC[C@@]21C [Ethinyl Estradiol] has a remaining activity at 1.25 µM ([1]; Well no.=5333) of 98.9% and a remaining activity at 3.75 µM ([2]; Well no.=5333) of 98.6%.
For CCc1cc(C(N)=S)ccn1 [Ethionamide], the remaining activity at 1.25 µM ([1]; Well no.=5347) was 96.4% and the remaining activity at 3.75 µM ([2]; Well no.=5347) was 95.4%.
For C#C[C@]1(O)CC[C@H]2[C@@H]3CCC4=CC(=O)CC[C@]4(C)[C@H]3CC[C@@]21C [Ethisterone], the remaining activity at 1.25 µM ([1]; Well no.=2030) was 101% and the remaining activity at 3.75 µM ([2]; Well no.=2030) was 101%.
CCC1(C)CC(=O)NC1=O (centres unmarked) [Ethosuximide] showed a remaining activity at 1.25 µM ([1]; Well no.=653) of 96.4% and a remaining activity at 3.75 µM ([2]; Well no.=653) of 97.7%.
CCOc1ccc2c(c1)C(C)=CC(C)(C)N2 [Ethoxyquin] gave a remaining activity at 1.25 µM ([1]; Well no.=4145) of 93.7% and a remaining activity at 3.75 µM ([2]; Well no.=4145) of 96.9%.
For CCC(C(=O)O)C(=O)O [Ethylmalonic acid], the remaining activity at 1.25 µM ([1]; Well no.=6875) was 94.5% and the remaining activity at 3.75 µM ([2]; Well no.=6875) was 93.4%.
Compound C#C[C@]1(OC(C)=O)CC[C@H]2[C@@H]3CCC4=C[C@@H](OC(C)=O)CC[C@@H]4[C@H]3CC[C@@]21C [Ethynodiol diacetate] has a remaining activity at 1.25 µM ([1]; Well no.=5373) of 92.3% and a remaining activity at 3.75 µM ([2]; Well no.=5373) of 92.2%.
Compound C#C[C@]1(O)CC[C@H]2[C@@H]3CCc4cc(O)ccc4[C@H]3CC[C@@]21C [Ethynyl Estradiol] has a remaining activity at 1.25 µM ([1]; Well no.=6487) of 103% and a remaining activity at 3.75 µM ([2]; Well no.=6487) of 102%.
Compound CC(O)(P(=O)(O)O)P(=O)(O)O [Etidronate] has a remaining activity at 1.25 µM ([1]; Well no.=2068) of 96.4%, a remaining activity at 1.25 µM ([1]; Well no.=8826) of 85.3% and a remaining activity at 3.75 µM ([2]; Well no.=2068) of 97.5%. For the same compound, the remaining activity at 3.75 µM ([2]; Well no.=8826) was 87.6%.
CCNC1=Nc2ccc(Cl)cc2C(C)(c2ccccc2)O1 (centres unmarked) [Etifoxine hydrochloride] gave a remaining activity at 1.25 µM ([1]; Well no.=6081) of 106% and a remaining activity at 3.75 µM ([2]; Well no.=6081) of 104%.
CCc1cccc2c3c([nH]c12)C(CC)(CC(=O)O)OCC3 (centres unmarked) [Etodolac] gave a remaining activity at 1.25 µM ([1]; Well no.=740) of 95.3% and a remaining activity at 3.75 µM ([2]; Well no.=740) of 97.9%.
In the case of CCOC(=O)c1cncn1[C@H](C)c1ccccc1 [Etomidate], the remaining activity at 1.25 µM ([1]; Well no.=5187) is reported as 100% and the remaining activity at 3.75 µM ([2]; Well no.=5187) is reported as 101%.
